Converted amounts (≈) assume the structure as drawn. One block for each compound: values may come before it.
Legend:
[1] = Inhibition of human cSrc-vSrc fusion protein expressed in rat fibroblast cells by ELISA; assay type: cell-based
[2] = biological target: CYP3A4 (Homo sapiens, UniProt P08684); assay: Inhibition of CYP3A4 at 3 uM; assay type: ADME
[3] = biological target: CYP2D6 (Homo sapiens, UniProt P10635); assay: Inhibition of CYP2D6 at 3 uM; assay type: ADME
[4] = biological target: CYP2C9 (Homo sapiens, UniProt P11712); assay: Inhibition of CYP2C9 at 3 uM; assay type: ADME
[5] = Drug level in nude mouse plasma at 50 mg/kg, po after 24 hrs; assay type: ADME, organism-based; design: dose 50 mg/kg, route oral
[6] = Stability in mouse plasma after 300 mins; assay type: ADME, cell-free; conditions: read-out: Stability
[7] = Solubility at pH 7.4; assay type: physicochemical; conditions: buffer
[8] = test system: HT-29; assay: Inhibition of tumor growth in human HT29 cells xenografted nude mouse at 150 mg/kg, po OD after 14 days relative to control; assay type: functional; conditions: HT-29, 336 h
[9] = Permeability across artificial membrane by PAMPA; assay type: ADME; conditions: read-out: permeability
[10] = Drug level in nude mouse plasma at 50 mg/kg, po after 4 hrs; assay type: ADME, organism-based; design: dose 50 mg/kg, route oral
[11] = Drug level in nude mouse plasma at 50 mg/kg, po after 8 hrs; assay type: ADME, organism-based; design: dose 50 mg/kg, route oral

Chain of CYP2C9 (P11712 whole entry): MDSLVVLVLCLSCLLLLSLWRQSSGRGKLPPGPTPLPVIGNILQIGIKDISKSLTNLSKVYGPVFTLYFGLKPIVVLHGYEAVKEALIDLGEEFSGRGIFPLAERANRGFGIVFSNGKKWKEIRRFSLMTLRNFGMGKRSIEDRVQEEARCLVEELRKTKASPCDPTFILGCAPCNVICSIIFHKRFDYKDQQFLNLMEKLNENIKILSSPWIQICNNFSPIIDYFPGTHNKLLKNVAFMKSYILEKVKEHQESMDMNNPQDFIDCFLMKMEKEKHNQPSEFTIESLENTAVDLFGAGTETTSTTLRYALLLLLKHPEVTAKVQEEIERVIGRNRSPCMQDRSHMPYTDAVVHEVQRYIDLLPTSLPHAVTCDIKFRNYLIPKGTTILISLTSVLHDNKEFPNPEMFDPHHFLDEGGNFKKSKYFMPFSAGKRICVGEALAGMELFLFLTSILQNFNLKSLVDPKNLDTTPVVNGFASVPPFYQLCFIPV
Chain of CYP3A4 (P08684 whole entry): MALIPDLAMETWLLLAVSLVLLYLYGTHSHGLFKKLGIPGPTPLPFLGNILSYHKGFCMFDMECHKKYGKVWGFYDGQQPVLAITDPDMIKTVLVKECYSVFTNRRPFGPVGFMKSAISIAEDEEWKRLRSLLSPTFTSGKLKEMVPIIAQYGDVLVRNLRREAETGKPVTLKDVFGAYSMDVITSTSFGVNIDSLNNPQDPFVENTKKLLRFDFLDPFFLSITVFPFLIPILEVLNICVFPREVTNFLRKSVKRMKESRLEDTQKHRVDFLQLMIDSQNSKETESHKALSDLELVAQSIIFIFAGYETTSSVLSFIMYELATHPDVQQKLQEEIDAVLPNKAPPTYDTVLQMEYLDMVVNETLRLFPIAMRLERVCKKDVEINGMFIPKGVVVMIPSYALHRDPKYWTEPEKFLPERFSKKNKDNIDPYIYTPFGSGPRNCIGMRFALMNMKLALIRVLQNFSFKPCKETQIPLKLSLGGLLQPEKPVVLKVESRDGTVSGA
Chain of CYP2D6 (P10635 whole entry): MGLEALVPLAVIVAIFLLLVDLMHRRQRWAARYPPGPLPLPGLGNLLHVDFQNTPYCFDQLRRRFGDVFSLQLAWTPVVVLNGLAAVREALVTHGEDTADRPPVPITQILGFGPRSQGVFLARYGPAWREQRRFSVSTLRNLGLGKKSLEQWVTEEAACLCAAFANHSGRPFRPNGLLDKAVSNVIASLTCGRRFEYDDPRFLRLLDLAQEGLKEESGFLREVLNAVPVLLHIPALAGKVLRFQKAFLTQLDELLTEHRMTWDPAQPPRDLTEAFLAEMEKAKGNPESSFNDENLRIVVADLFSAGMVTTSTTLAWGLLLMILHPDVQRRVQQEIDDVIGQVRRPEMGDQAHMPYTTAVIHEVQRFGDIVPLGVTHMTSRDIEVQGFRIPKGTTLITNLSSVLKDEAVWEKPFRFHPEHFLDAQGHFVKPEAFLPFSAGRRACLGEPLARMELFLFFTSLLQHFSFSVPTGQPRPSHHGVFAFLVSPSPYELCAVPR

Structure (SMILES): COCCNc1cc2ncc(C#N)c(Nc3cc(OC)c(Cl)cc3Cl)c2cc1OC
IC50 [1]: 1500 nM

Structure (SMILES): CCOc1cc2c(Nc3cc(OC)c(Cl)cc3Cl)c(C#N)cnc2cc1OCCCN1CCN(C)CC1
IC50 [1]: 85 nM

Structure (SMILES): COCCOc1ccc2c(Nc3ccc(Cl)cc3Cl)c(C#N)cnc2c1
IC50 [1]: > 10000 nM

Structure (SMILES): COc1cc(Nc2c(C#N)cnc3cc(NCCCN4CCOCC4)c(OC)cc23)c(Cl)cc1Cl
IC50 [1]: 390 nM

inhibition at 3 µM [2]: < 34%
inhibition at 3 µM [3]: < 34%
inhibition at 3 µM [4]: < 34%
concentration at 24 h [5]: 80 ng/mL
remaining at 5 h [6]: > 70%
solubility [7]: > 100 µg/mL
Papp [9]: 7.3 ×10⁻⁶ cm/s
concentration at 4 h [10]: 610 ng/mL
concentration at 8 h [11]: 410 ng/mL
Structure (SMILES): COc1cc(Nc2c(C#N)cnc3cc(NCCCN(C)C)c(OC)cc23)c(Cl)cc1Cl
inhibition in vivo at 150 mg/kg [8]: 75%
IC50 [1]: 300 nM

Structure (SMILES): CCOc1cc2c(Nc3cc(OC)c(Cl)cc3Cl)c(C#N)cnc2cc1OCCOC
IC50 [1]: 180 nM

Structure (SMILES): COc1cc(Nc2c(C#N)cnc3cc(N(C)CCCN(C)C)c(OC)cc23)c(Cl)cc1Cl
IC50 [1]: 2700 nM

concentration at 24 h [5]: 47 ng/mL
concentration at 4 h [10]: 1060 ng/mL
Structure (SMILES): COc1cc(Nc2c(C#N)cnc3cc(OCCCN4CCN(C)CC4)c(OC)cc23)c(Cl)cc1Cl [BOSUTINIB]
inhibition in vivo at 150 mg/kg [8]: 50%
IC50 [1]: 100 nM

Structure (SMILES): COc1cc(Nc2c(C#N)cnc3cc(OCCCN4CCN(C)CC4)ccc23)c(Cl)cc1Cl
IC50 [1]: 710 nM

Structure (SMILES): COCCOc1ccc2c(Nc3cc(OC)c(Cl)cc3Cl)c(C#N)cnc2c1
IC50 [1]: 1600 nM

inhibition at 3 µM [2]: < 34%
inhibition at 3 µM [3]: < 34%
inhibition at 3 µM [4]: < 34%
concentration at 24 h [5]: 100 ng/mL
remaining at 5 h [6]: > 70%
solubility [7]: 32 µg/mL (≈ 60.4 µM)
Papp [9]: 10.7 ×10⁻⁶ cm/s
concentration at 4 h [10]: 790 ng/mL
concentration at 8 h [11]: 520 ng/mL
Structure (SMILES): COc1cc(Nc2c(C#N)cnc3cc(NCCCN4CCN(C)CC4)c(OC)cc23)c(Cl)cc1Cl
inhibition in vivo at 150 mg/kg [8]: 63%
IC50 [1]: 360 nM

Structure (SMILES): COCCOc1cc2ncc(C#N)c(Nc3cc(OC)c(Cl)cc3Cl)c2cc1OC
IC50 [1]: 190 nM
